In patent US11878992B2, “Crystallization of steviol glycosides” (DSM IP Assets B.V., priority 2016, dated 2024):
Each block holds one molecule with its values, some of them ahead of it.

What was measured:
[1] = suitable for use in carbonated beverages and many other foods; cited from earlier work
[2] = tested on: mildly hypertensive patients; conditions: studies suggest; cited from earlier work
Type II diabetics = conditions: studies suggest; cited from earlier work
[3] = relative to sucrose; cited from earlier work
[4] = solubility in washing liquid (95% ethanol); format: physicochemical; conditions: in 95% ethanol (washing liquid)
Procedure: The suspension of 2.5 g crystals in 100 ml water was heated to 75° C. for 10 minutes to dissolve the crystals. The solution was cooled to 20° C. at 10° C./h and incubated at this temperature overnight. The crystals formed were filtered by vacuum and washed with two cake volumes of 95% ethanol
The choice of washing liquid was because of the low rebaudioside M solubility in it. The crystals were dried at 60° C. under vacuum overnight. […] The crystals contained >95% Reb-M as determined by LC-UV and the level of all KAG was below the limit of detection of LC-MS.

[5] = spontaneous crystallization from nanofiltration retentate; format: physicochemical; conditions: aqueous nanofiltration retentate of fermentation broth
Procedure: The fermentation broth after laboratory scale fermentations was processed as follows: • centrifugation 30 min at 4000×g; • pH in the supernatant was adjusted to 3.5 and supernatant was heated 30 min at 70° C.; • the heated supernatant was clarified by centrifugation; • the clarified supernatant was ultrafiltrated through a membrane with 10 kDa cut-off; and • the permeate after ultrafiltration was nanofiltrated using a membrane with 150-300 Da cut-off.
Finally, 14.5 g of dried crystals were isolated out of 0.871 kg NF retentate.

SMILES: C=C1C[C@@]23CC[C@H]4[C@@](C)(CCC[C@@]4(C)C(=O)O[C@@H]4O[C@H](CO)[C@@H](O)[C@H](O)[C@H]4O)[C@@H]2CC[C@]1(O[C@@H]1O[C@H](CO)[C@@H](O)[C@H](O)[C@H]1O[C@@H]1O[C@H](CO)[C@@H](O)[C@H](O)[C@H]1O)C3 [Stevioside]
- heat and pH stability [1]: heat and pH stable
- effect on blood pressure [2]: can reduce blood pressure
- effect on blood glucose levels (Type II diabetics): can reduce blood glucose levels

SMILES: C=C1C[C@@]23CC[C@H]4[C@@](C)(CCC[C@@]4(C)C(=O)O[C@@H]4O[C@H](CO)[C@@H](O)[C@H](O)[C@H]4O)[C@@H]2CC[C@]1(O[C@@H]1O[C@H](CO)[C@@H](O)[C@H](O[C@@H]2O[C@H](CO)[C@@H](O)[C@H](O)[C@H]2O)[C@H]1O[C@@H]1O[C@H](CO)[C@@H](O)[C@H](O)[C@H]1O)C3 [rebaudioside A]
- heat and pH stability [1]: heat and pH stable

SMILES: C=C1C[C@@]23CC[C@H]4[C@@](C)(CCC[C@@]4(C)C(=O)O[C@@H]4O[C@H](CO)[C@@H](O)[C@H](O)[C@H]4O[C@@H]4O[C@H](CO)[C@@H](O)[C@H](O)[C@H]4O)[C@@H]2CC[C@]1(O[C@@H]1O[C@H](CO)[C@@H](O)[C@H](O[C@@H]2O[C@H](CO)[C@@H](O)[C@H](O)[C@H]2O)[C@H]1O[C@@H]1O[C@H](CO)[C@@H](O)[C@H](O)[C@H]1O)C3 [rebaudioside D]
- times sweeter than sucrose [3]: about 200 times

- solubility [4]: low
- concentration in the retentate of nanofiltration at which crystallization begins spontaneously [5]: exceeded 30 g/I
SMILES: C=C1C[C@@]23CC[C@H]4[C@@](C)(CCC[C@@]4(C)C(=O)O[C@@H]4O[C@H](CO)[C@@H](O)[C@H](O[C@@H]5O[C@H](CO)[C@@H](O)[C@H](O)[C@H]5O)[C@H]4O[C@@H]4O[C@H](CO)[C@@H](O)[C@H](O)[C@H]4O)[C@@H]2CC[C@]1(O[C@@H]1O[C@H](CO)[C@@H](O)[C@H](O[C@@H]2O[C@H](CO)[C@@H](O)[C@H](O)[C@H]2O)[C@H]1O[C@@H]1O[C@H](CO)[C@@H](O)[C@H](O)[C@H]1O)C3 [rebaudioside M]
